Where two headings read alike, the source gives them in different places.
How the values were obtained:
[1] = multiple-trial passive avoidance: learning; assay type: in vivo, male Sprague-Dawley rats
Experimental: To evaluate whether a compound can promote learning, the following test is carried out. […] Rats which remain on the mat for this period have acquired the avoidance reflex and are replaced in their original cage without receiving the electric shock. […] The results obtained in the test used to evaluate learning are given in columns 3 and 4. […] The results were analyzed by the Student test.

[2] = tested on: amnesia induced by scopolamine; test: multiple-trial passive avoidance: mnemic retention, amnesia induced by scopolamine
Experimental: To this end, the method of multiple-trial passive avoidance has been used. […] The test is carried out on male Sprague-Dawley rats (160-200 g). which are kept in standard cages throughout the experiment. The apparatus used is a transparent square cage with 35 cm sides and 25 cm high, fitted with a grid floor which can be electrified. A rubber insulating mat (10×17 cm) is placed on the floor in one of the corners of the cage.
Each animal is subjected to four tests at times 0, 4, 24 and 28 hours. In the first test (time 0), the animal is placed on the rubber mat and the time which it takes to decide to leave this position to explore the cage is recorded. After 20 seconds of exploration, the rat receives an electric shock (3 seconds duration) in the paws, causing an escape reaction. The rat is immediately removed from the apparatus and replaced in its original cage. In the course of the three subsequent tests (times: 4, 24 and 28 hours), the animal is replaced on the rubber mat and the time taken to leave this position is recorded. As soon as the four paws of the animal rest on the grid, it receives an electric shock and is removed immediately from the apparatus.
At the start of the experiment, the rats are divided into 4 homogeneous groups of 15 animals. Thirty minutes before each test, each group of animals is subjected to a predetermined treatment:
Groups 1 and 2 are used in the first experiment (learning) and groups 3 and 4 in the second experiment (mnemic retention).
The differences found are analyzed statistically by the Mann-Whitney method.

[3] = tested on: plantar edema induced by immune complexes; test: "reverse passive Arthus" (RPA) test, anti-inflammatory and anti-edema activity; assay type: in vivo, Sprague-Dawley rat; settings: Rattus norvegicus, intravenous
Experimental: The reaction between a soluble antigen and antibodies in the organism may lead to an acute inflammatory reaction accompanied by release of histamine, modification of vascular permeability and formation of a localized edema. […] To this end, the Arthus reaction is induced by subplantar administration of 0.1 ml of heterologous antivalbumin reaginic serum into the right hind paw and by simultaneous intravenous injection of 1 ml/kg ovalbumin (25 mg/ml). The compound to be tested is administered intravenously 30 seconds before induction of the Arthus reaction, in a least 3 different doses. A group of 6 rats is used per dose of compound to be tested. The volume of the paw is measured by plethysmometry before the Arthus reaction and 3 to 5 hours after induction of the Arthus reaction, both in the control animals and in the treated animals. The effect of a compound on the reduction in the edema for each dose and at each measurement time (3 hours and 5 hours) is expressed in % of the edema observed in the control animals. The doses of the compounds (ID30 in μmole/kg) which inhibit by 30%, on average over all the animals, the volume of the edema observed in the control animals are given in Table VII below.

[4] = tested on: anaphylactic release of histamine, guinea-pig lung sections; test: potentiation of the inhibition of anaphylactic histamine release by isoprenaline; assay type: cell-based, Dunkin-Hartley guinea-pigs; settings: with isoprenaline 10^-7 mole per liter
Experimental: (§1) Dunkin-Hartley guinea-pigs which are first passively sensitized by an intravenous injection of 1 ml of isologous antiovalbumin serum are used. Twenty-four hours after the injection, the lungs are then perfused with a Tyrode buffer to evacuate the blood, and then removed and cut into sections of 1 mm. These sections are divided up into test tubes (3 sections per tube) to give 10 experimental groups of lung sections per guinea-pig. A "positive" control group of lung sections is stimulated by addition of an ovalbumin solution (0.1 mg/ml) to induce the anaphylactic release of histamine and serves to determine the maximum amount of histamine (100%) which can be released. A "negative" control group which is not stimulated by ovalbumin serves to determine the naturally released amount of histamine (spontaneous release). In three other groups, the lung sections are incubated at 37° C. for 30 minutes in the ovalbumin solution in the presence of three different doses of the compound to be tested (one dose per group). […] At this dose, isoprenaline inhibits the release of histamine by 30 to 40%, which is verified on a control group treated only with isoprenaline alone at this dose. In addition, a supplementary control group which is not stimulated by ovalbumin is used to detect a possible spontaneous release of histamine by the highest dose of the compound tested. In each group, the histamine released in the incubation medium is measured by spectrofluorometry (D. P. EVANS et al., Life Sci., 12, (1973), 327-336).

PMN granulocytes = test: inhibition of the stimulation of PMN granulocytes (chemiluminescence); assay type: cell-based, Rat; settings: for activity at 1 µM: FMLP 3.2×10^-7 mole/liter
Excerpt: Polymorphonuclear neutrophil granulocytes (PMN) are cells which are mobilized during inflammatory phenomena and which can be stimulated by various compounds, such as, for example, formylmethionyl-leucylphenylalanine (FMLP) or prostaglandins E (PGE1). The PMN granulocytes respond to these extracellular stimuli with an activation of the oxygen metabolism with release of toxic oxygenated metabolites. An excessive response of the PMN granulocytes may be the cause of a painful inflammation and is also accompanied by a reduction in the level of cyclic adenosine monophosphate (cAMP) in these granulocytes. Consequently, compounds which inhibit the respiratory burst of PMN granulocytes or which increase the level of cAMP can be regarded as very important in the treatment of arthritis and asthma. […] Rat PMN granulocytes (5×10^6 /ml) are preincubated in a phosphate buffer ([…], pH 7.4), containing luminol at a concentration of 10^-5 mole per liter, for 15 minutes at 37° C. and then for 5 minutes in the presence of the compound to be treated at a concentration of 10^-6 mole/liter. […] The luminescence which results from the stimulation is measured by means of an LKB 1251 luminometer according to the method of […] and […] (Infection and Immunology, 37, (1982), 34-39). An experimental cycle lasts 38 seconds. The reaction is repeated 9 times for each compound to be tested and the average of the results obtained is calculated.

[5] = tested on: longitudinal muscles of the ileum contracted by histamine; test: potentiation of the myorelaxing effect of isoprenaline on the ileum; assay type: cell-based, Dunkin-Hartley guinea-pigs; settings: with isoprenaline 10^-7 mole/l; histamine 3.2 μmoles/l
Experimental: (cf. R. A. TURNER, "Screening Methods in Pharmacology", Ed. Acad. Press, San Diego, 1965, chapter IV, pages 43-47). […] Inhibition cycle: When the successive contractions induced by the histamine injections have become reproducible, the compound to be tested is injected immediately after the second wash. The contraction induced by the following injection of histamine is measured and compared with the average of the three preceding contractions caused by the repeated injections of histamine (control contractions). From the result obtained, the percentage inhibition of the contraction is calculated. Several cycles of histamine injection are then performed again, until the contractions of the muscle become reproducible again; the muscle is then ready for testing of another compound. The potentiating effect of a compound is measured in the course of a so-called "potentiation" cycle, which comprises three successive inhibition cycles. […] In the course of the second inhibition cycle, the percentage inhibition of the contraction obtained with the compound to be tested, injected alone at a given dose, is determined. In the third inhibition cycle, isoprenaline and the compound to be tested are injected simultaneously, and the percentage inhibition of the contraction is calculated for the dose used of the compound tested. The same experiments are repeated for each of the doses of the compounds tested.

[6] = tested on: bronchospasm induced by acetylcholine; test: bronchospasmolytic activity (Konzett and Roessler), bronchospasm induced by acetylcholine; assay type: in vivo, Dunkin-Hartley guinea-pig; settings: Cavia porcellus, read-out: Doses (ID50), Acetylcholine
Experimental: (§2) This activity was measured in the Dunkin-Hartley guinea-pig by the method of H. KONZETT and […] (Naunyn Schmiedebergs Arch. exp. Path. […] The anesthetized (urethane) and curarized (gallamine) guinea-pig is placed under assisted respiration. The endotracheal pressure is recorded. […] The compound to be tested is also administered intravenously two minutes before the administration of the spasmogen and then in 3 to 4 cumulative doses in increasing amounts at intervals of 15 minutes. Six animals per compound to be tested and per spasmogen are used.

[7] = tested on: bronchospasm induced by serotonin; test: bronchospasmolytic activity (Konzett and Roessler), bronchospasm induced by serotonin; assay type: in vivo, Dunkin-Hartley guinea-pig; settings: Cavia porcellus, read-out: Doses (ID50), Serotonin
Experimental: as §2

[8] = tested on: anaphylactic release of histamine, guinea-pig lung sections; test: inhibition of the anaphylactic release of histamine (proper effect); assay type: cell-based, Dunkin-Hartley guinea-pigs; settings: Cavia porcellus, in vitro, read-out: Minimum inhibitory dose (MID)
Experimental: as §1

[9] = tested on: bronchospasm induced by histamine; test: bronchospasmolytic activity (Konzett and Roessler), bronchospasm induced by histamine; assay type: in vivo, Dunkin-Hartley guinea-pig; settings: Cavia porcellus, read-out: Doses (ID50), Histamine
Experimental: as §2

toxicity, Irwin's test = assay type: in vivo; settings: i.p.; death of two animals out of three within 48 hours
Experimental: Progressive doses of the compound to be tested are administered intraperitoneally to groups of three mice until the lethal dose is reached (dose which causes the death of two animals out of three within 48 hours).

cAMP in PMN granulocytes = test: increase in the level of cAMP in PMN granulocytes; assay type: cell-based, Rat; settings: […]10^-6 mole per liter; PGE1 10^-6 mole/liter; control 4.3
Excerpt: Polymorphonuclear neutrophil granulocytes (PMN) are cells which are mobilized during inflammatory phenomena and which can be stimulated by various compounds, such as, for example, formylmethionyl-leucylphenylalanine (FMLP) or prostaglandins E (PGE1). The PMN granulocytes respond to these extracellular stimuli with an activation of the oxygen metabolism with release of toxic oxygenated metabolites. An excessive response of the PMN granulocytes may be the cause of a painful inflammation and is also accompanied by a reduction in the level of cyclic adenosine monophosphate (cAMP) in these granulocytes. […] The reaction is then stopped by addition of 1 ml of propanol. After centrifugation at 15,000 g for 3 minutes, the supernatant is recovered and evaporated and the amount of cAMP in the residue is determined by radioimmunological assay according to the process recommended by the supplier of the reagent used for this purpose (Amersham). A control test is carried out under the same conditions, but in the absence of the compound to be tested.

[10] = 3 hours after induction of the Arthus reaction, read-out: Dose (ID30), 3 hours
[11] = 5 hours after induction of the Arthus reaction, read-out: Dose (ID30), 5 hours
[12] = Rattus norvegicus, 10^-6 mole/l, read-out: Residual chemiluminescence
[13] = intravenous, acetylcholine-induced bronchospasm
[14] = intravenous, serotonin-induced bronchospasm
[15] = intravenous, histamine-induced bronchospasm

Compound	ED30 [3, 10] [µmol/kg]	ED30 [3, 11] [µmol/kg]	Minimum potentiating dose (MPD) [4] [µmol/L]	activity at 1 µM (PMN granulocytes; [12]) [%]	Minimum potentiating dose (MPD) [5] [µmol/L]	ED50 [6, 13] [µmol/kg]	ED50 [7, 14] [µmol/kg]	minimal effective concentration [8] [µM]	ED50 [9, 15] [µmol/kg]	Lethal dose (toxicity, Irwin's test) [mg/kg]	further results
CNC(=O)Oc1ccc2c(c1)[C@]1(C)CCN(C)[C@@H]1N2C [physostigmine, reference compound]											Learning, average number of trials, group 2 ([1]; 0.4 mg/kg i.p.): 2.3 trials; Period of remaining on the mat, group 4 ([2]; 4 hours, 0.4 mg/kg i.p. + 0.5 mg scopolamine): 17.8 s; Period of remaining on the mat, group 4 ([2]; 24 hours, 0.4 mg/kg i.p. + 0.5 mg scopolamine): 56.2 s; Period of remaining on the mat, group 4 ([2]; 28 hours, 0.4 mg/kg i.p. + 0.5 mg scopolamine): 53.4 s; side effects / toxicity at the active dose ([2]; at the dose active against scopolamine amnesia): at a dose which has side effects and is very close to the toxic dose; action against the amnesic effect of scopolamine ([2]; similar to that of the compounds according to the invention): favorable action against the amnesic effect of scopolamine; Period of remaining on the mat, group 4 ([2]; time 0, 0.4 mg/kg i.p. + 0.5 mg scopolamine): 1.9 s
CCCc1nc(NC2CC2)nc(N2CC(O)C2)n1 [Compound 15]	39	4	3.2	70	3.2	0.3	0.2	10	0.08	> 498	Learning, average number of trials, group 2 ([1]; 2.5 mg/kg i.p.): 1.9 trials; Period of remaining on the mat, group 4 ([2]; 4 hours, 2.5 mg/kg i.p. + 0.5 mg scopolamine): 19.5 s; Period of remaining on the mat, group 4 ([2]; 24 hours, 2.5 mg/kg i.p. + 0.5 mg scopolamine): 94.3 s; Period of remaining on the mat, group 4 ([2]; 28 hours, 2.5 mg/kg i.p. + 0.5 mg scopolamine): 112.7 s; Period of remaining on the mat, group 4 ([2]; time 0, 2.5 mg/kg i.p. + 0.5 mg scopolamine): 9.8 s
CCc1nc(NC2CC2)nc(N2CC3CCC(C2)O3)n1 [Compound 10]			0.32	56	1.0	0.5	0.3	3.2	0.1	311.8	Period of remaining on the mat, group 4 ([2]; 4 hours, […] i.p. + 0.5 mg scopolamine): 20.3 s; Period of remaining on the mat, group 4 ([2]; 24 hours, […] i.p. + 0.5 mg scopolamine): 78.9 s; Period of remaining on the mat, group 4 ([2]; 28 hours, […] i.p. + 0.5 mg scopolamine): 142.0 s; Period of remaining on the mat, group 4 ([2]; time 0, […] i.p. + 0.5 mg scopolamine): 5.7 s
Cn1c(=O)c2[nH]cnc2n(C)c1=O [theophylline, reference compound]	18	10	1000.0	100	1000.0			100			Amount of cAMP produced (cAMP in PMN granulocytes): 5.0 picomoles per 10^7 cells; inhibition of the stimulation of PMN granulocytes (PMN granulocytes; 10^-6 mole/l): completely inactive; activity at 100 µM (PMN granulocytes; Rattus norvegicus, 10^-4 mole/l, read-out: Residual chemiluminescence): 65%; ED50 ([6]; iv): 10 µmol/kg; ED50 ([7]; iv): 4.6 µmol/kg; ED50 ([9]; iv): 5.6 µmol/kg
Cc1nc(NC2CC2)nc(N2CC3CCC(C2)O3)n1.Cl [Compound 9, 2-Cyclopropylamino-4-methyl-6-(8-oxa-3-azabicyclo[3,2,1]oct-3-yl)-1,3,5-triazine hydrochloride]	3.4	4.4	3.2	82	10.0	2.1	1	3.2	0.4	297.8	Learning, average number of trials, group 2 ([1]; 3.0 mg/kg i.p.): 2.9 trials; Period of remaining on the mat, group 4 ([2]; 4 hours, 3.0 mg/kg i.p. + 0.5 mg scopolamine): 17.3 s; Period of remaining on the mat, group 4 ([2]; 24 hours, 3.0 mg/kg i.p. + 0.5 mg scopolamine): 38.1 s; Period of remaining on the mat, group 4 ([2]; 28 hours, 3.0 mg/kg i.p. + 0.5 mg scopolamine): 65.2 s; Period of remaining on the mat, group 4 ([2]; time 0, 3.0 mg/kg i.p. + 0.5 mg scopolamine): 3.6 s

Reference: patent US5348956A, “Substituted cyclopropylamino-1,3,5-triazines” (UCB S.A., priority 1991, dated 1994)
